Experimental data published in the Biogen ADME set (Fang et al. 2023).
Converted amounts (≈) assume the structure as drawn.

Conditions: for aqueous solubility: pH 6.8

Row | Compound | intrinsic clearance, human liver microsomes [mL/min/kg] | intrinsic clearance, rat liver microsomes [mL/min/kg] | MDR1-MDCK efflux ratio | aqueous solubility [µg/mL] | fraction unbound, human plasma | fraction unbound, rat plasma
1 | COc1cc2nc(N)sc2cc1OC | ≤ 4.74 | 12.6 | 0.668 | 32.6 (≈ 155 µM) |  | 
2 | Cn1nc(N)c2ccc(Br)cc21 | 24 | 94.8 | 0.72 |  |  | 
3 | O=S(=O)(c1ccccc1)N(CC(F)(F)F)c1ccc(C(O)(C(F)(F)F)C(F)(F)F)cc1 | 7.61 | 14.6 |  |  |  | 
4 | CSCCc1nc(-c2cc(C)nc3cc(F)ccc23)n(CCO)n1 | 16.9 | 147 | 21.8 | 24 (≈ 69.4 µM) |  | 
5 | CC(C)CCN1CCC(CNS(C)(=O)=O)CC1 | ≤ 4.74 | ≤ 10.7 | 2.43 |  |  | 
6 | CCC1=C(C)CN(C(=O)NCCc2ccc(S(=O)(=O)NC(=O)N[C@H]3CC[C@H](C)CC3)cc2)C1=O | 19.2 | 305 | 68.6 |  | 0.00066 | 0.00023
7 | O=c1c2c(nc3ccccn13)CCN(S(=O)(=O)C1CCCCC1)C2 | 19.9 | 1100 | 1.18 | 33.2 (≈ 95.7 µM) |  | 
8 | CC1(C)[C@@H]2C[C@H]1[C@@]1(O)[C@@H](C2)Oc2c(ccc(O)c2C(=O)NCCNS(C)(=O)=O)[C@@H]1O | 29.3 | 134 | 91 |  |  | 
9 | COCC1(CNC(=O)c2cc(Cl)cnc2O)CCC1 | 16.3 | 475 | 5.64 |  |  | 
10 | O=C(O)c1cnn(-c2nc3cc(Cl)c(OC(F)(F)F)cc3[nH]2)c1 | ≤ 4.74 | ≤ 10.7 | 1.05 |  |  | 
11 | Oc1ccc2nc(/C=C/c3csnn3)ccc2c1Cl | 99.4 | 240 | 0.069 |  |  | 
12 | O=c1[nH]c2ccccc2n1C1CCN(Cc2coc(-c3cccs3)n2)CC1 | 29.4 | 475 |  |  |  | 
13 | O=C(O)c1cc2cc(O)c(O)cc2c(C(=O)c2ccc(O)c(O)c2)n1 | 35.5 | 110 |  | 57.9 (≈ 170 µM) |  | 
14 | O=C(NCCN1C(=O)CSC1=O)c1cc(Cl)c2c(c1)OCO2 | 13 | 83 | 2.69 | 39.6 (≈ 116 µM) |  | 
15 | Cc1ccc(C)c(S(=O)(=O)N2CCCN(C3CCC3)CC2)c1 | 214 | 2150 | 0.605 | 57.9 (≈ 179 µM) |  | 
16 | Cc1cc(Nc2cc(N)ncn2)c(=O)n2c1C(=O)NC21CCCCC1 | ≤ 4.74 | 24.8 | 25.5 |  |  | 
17 | CC#CCNc1ccc(-n2cnnn2)c(C)c1 | 21.1 | 131 | 0.59 | 19.4 (≈ 85.4 µM) |  | 
18 | COc1ccc(CCCN2CCN(c3cnn(C)c3)C(=O)C2)cc1F | ≤ 4.74 | 44.1 | 0.734 |  | 0.221 | 0.203
19 | COc1cc2cc(N)c(C3CCNCC3)nc2cc1OC | ≤ 4.74 | ≤ 10.7 |  |  |  | 
20 | Cc1sc2nc(CN3CCCC3)nc(N)c2c1C | ≤ 4.74 | 2760 | 17.6 | 44.6 (≈ 170 µM) |  | 
21 | Cc1nc(N(C)C)cc(C2(C)CCNCC2)n1 | ≤ 4.74 | 18.4 | 17.7 | 45 (≈ 192 µM) |  | 
22 | Cn1cc(C(=O)N2CCC(c3cc(C(F)(F)F)c4c(n3)CCNC4=O)CC2)ccc1=O | ≤ 4.74 | ≤ 10.7 | 0.752 | 53 (≈ 122 µM) |  | 
23 | CC(C)(C)c1[nH]cnc1/C=c1\[nH]c(=O)/c(=C/c2ccccc2)[nH]c1=O | ≤ 4.74 | 146 | 7.19 |  |  | 
24 | CN1[C@@H]2CC[C@H]1C[C@H](OC(c1ccccc1)c1ccccc1)C2 | 9.86 | 1090 | 7.37 | 52.1 (≈ 169 µM) | 0.128 | 0.152

More lines, now with the values ahead:

Row | intrinsic clearance, human liver microsomes [mL/min/kg] | intrinsic clearance, rat liver microsomes [mL/min/kg] | MDR1-MDCK efflux ratio | aqueous solubility [µg/mL] | fraction unbound, human plasma | fraction unbound, rat plasma | Compound
25 | ≤ 4.74 | ≤ 10.7 |  |  |  |  | Cc1nc(CS(C)(=O)=O)sc1C(=O)Nc1ccccc1
26 | ≤ 4.74 | ≤ 10.7 | 8.23 | 28.8 (≈ 130 µM) |  |  | Cn1cncc1CCNC(=O)[C@H]1CC1(C)C
27 | 37.7 | 88.6 | 32.6 | 77.3 (≈ 181 µM) |  |  | NC(=O)c1cnc(NC2CC2)nc1CCNC(=O)C1(c2cccc(F)c2)CCOCC1
28 | 24.2 | 1110 | 13.5 | 9.3 (≈ 24.6 µM) |  |  | Cc1nc2cc(NC(=O)CCc3c(C)nc4c(c(C)nn4C)c3C)ccc2o1
29 | ≤ 4.74 | 75 | 0.85 | 20.7 (≈ 78.5 µM) |  |  | CCc1cnc(C)nc1-c1ccc(-c2ccn[nH]2)cc1
30 | 42.8 | 165 | 45.8 | 24.4 (≈ 54.9 µM) |  |  | O=C1NCC2(C/C=C/CCOc3ccccc31)CCN(C(=O)c1ccc3[nH]nnc3c1)CC2
31 |  |  |  | 0.7 (≈ 2.28 µM) |  |  | Cc1cccc(N(C)C(=S)Oc2ccc3ccccc3c2)c1
32 |  |  |  | 2.15 (≈ 6.82 µM) |  |  | CC(Sc1nc2c(cnn2-c2ccccc2)c(=O)[nH]1)C(N)=O (stereo unspecified)
33 |  |  | 0.643 | 0.5 (≈ 1.37 µM) |  |  | Nc1nc(-c2ccccc2)c(C(=O)Nc2ccc(Cl)c(Cl)c2)s1
34 |  |  |  | 65.5 (≈ 199 µM) |  |  | Cc1ccnc(NC(=O)C2CCN(CCc3cccs3)CC2)c1
35 | 15.2 | 108 | 1.31 | 44 (≈ 120 µM) |  |  | O=C(NCCN1CCC(c2ccccc2)CC1)c1ccc2ncsc2c1
36 | ≤ 4.74 | 601 | 67.6 |  |  |  | Cc1nc2cc(-c3nccn3C)nn2c(NCCCN(C)C)c1C
37 | 108 | 1010 | 0.708 | 4.06 (≈ 16.5 µM) |  |  | CNC(=O)Cc1csc(-c2ccc(C)cc2)n1
38 | 963 | 1910 | 2.7 | 8.44 (≈ 18.9 µM) |  |  | Cc1cc(-c2ccc(N)nc2)cc(C2CCN(C(=O)CCCc3ccc(F)c(C)c3)CC2)n1
39 | 7.49 | 80.4 | 0.513 | 11.5 (≈ 32.7 µM) |  |  | COc1ccc(CNC(=O)c2nnn(-c3ccc(OC)cc3)c2N)cc1
40 | ≤ 4.74 | 35.5 | 2.15 |  |  |  | C#CCNC(=O)N(Cc1ccccc1F)C1CCOCC1

Row | intrinsic clearance, human liver microsomes [mL/min/kg] | intrinsic clearance, rat liver microsomes [mL/min/kg] | MDR1-MDCK efflux ratio | aqueous solubility [µg/mL] | fraction unbound, human plasma | fraction unbound, rat plasma | Compound
41 | 116 | 1040 | 10.7 | 59 (≈ 158 µM) |  |  | Cc1cnc(-c2nc(NCc3ccccn3)ncc2-c2onc(C)c2C)cn1
42 | 182 | 985 | 0.484 | 8.4 (≈ 23.2 µM) |  |  | COc1ccc2nc(C)c(C(=O)Nc3ccccc3N3CCCC3)cc2c1
43 | 11.5 | 150 | 7.87 | 41.5 (≈ 148 µM) |  |  | Cn1ccnc1CCNC(=O)c1cccc2cccnc12
44 |  |  |  | 2.34 (≈ 6.49 µM) |  |  | COc1ccc(C2=N/C(=C/c3cc4ccccc4n3C(C)=O)C(=O)O2)cc1
45 | 30.8 | 181 | 0.497 | 41.1 (≈ 164 µM) |  |  | c1ccc(-n2cc(CNc3ncccn3)cn2)cc1
46 | 211 | 2010 | 2.43 |  | 0.147 | 0.179 | COCCc1noc(CN2CC(c3ccccc3)(c3ccccc3)CCC2=O)n1
47 |  |  |  | 0.61 (≈ 1.36 µM) |  |  | COc1cc(OCc2ccccn2)ccc1/C=C/c1cc(/C=C/c2ccc3cc[nH]c3c2)[nH]n1
48 | 36.9 | 74.1 | 17.8 | 56.3 (≈ 168 µM) |  |  | Cc1ccc2nc3c(c(C(=O)NCc4cnn(C)c4)c2c1)CCCC3
49 | 42.2 | 1190 | 0.389 | 47 (≈ 153 µM) |  |  | COc1ccc(-c2cn3c4ccccc4nc3n2CCO)cc1
50 | 40.9 | 66.8 | 1.52 | 20.1 (≈ 74.2 µM) |  |  | Clc1ccc(Cc2nc(-c3ccccc3)n[nH]2)cn1
51 |  |  |  | 0.4 (≈ 1.2 µM) |  |  | O=c1sn(-c2cccc3ccccc23)c(=O)n1Cc1ccccc1
52 | 4.88 | ≤ 10.7 | 0.711 | 45 (≈ 135 µM) |  |  | O=C(O)c1cccc(N2CCC(Oc3ccc(Cl)cc3)CC2)n1
53 |  |  |  | 27.5 (≈ 88.8 µM) |  |  | CC1(C)C(=O)N(Cc2ccc(CO)cc2)C(=O)c2ccccc21
54 | ≤ 4.74 | 23.6 | 0.706 |  |  |  | Cc1noc(COc2cccnc2C)n1
55 | 20 | 115 | 0.615 | 32.6 (≈ 120 µM) |  |  | Cc1ccc(C(=O)C(=O)Nc2c(C)nn(C)c2C)cc1
56 | 88.9 | 971 | 0.885 | 35.4 (≈ 103 µM) |  |  | Fc1ccc2[nH]c(CO[C@H]3CN(Cc4ccccc4)C[C@H]3F)nc2c1
